Laboratory results: ChEMBL document CHEMBL4130505, “4-Quinolone hybrids and their antibacterial activities” (Eur J Med Chem, 2017)
Converted amounts (≈) assume the structure as drawn. Values belong to the compound of their own block, whether it stands above or below them.

Experiments:
Escherichia coli [1] = assay: Potency index, ratio of ciprofloxacin EC50 to compound EC50 for antibacterial activity against Escherichia coli NCTC 10419 infected in CF mouse; format: functional
Escherichia coli [2] = assay: Antibacterial activity against Escherichia coli NCTC 10419 infected in CF mouse assessed as protection against bacterial infection administered orally at 1 and 4 hrs post infection measured after 1 week; format: functional, organism-based
Escherichia coli [3] = assay: Potency index, ratio of ciprofloxacin MIC to compound MIC for Escherichia coli NCTC 10419; format: functional
Escherichia coli [4] = assay: Antibacterial activity against Escherichia coli; format: functional
Escherichia coli [5] = assay: Potency index, ratio of ciprofloxacin MIC to compound MIC for Escherichia coli; format: functional
Klebsiella pneumoniae = assay: Antibacterial activity against Klebsiella pneumoniae by microdilution method; format: functional
[6] = Solubility of the compound in water; format: physicochemical
Escherichia coli [7] = assay: microbe, parasite or virus in culture; details: NCTC 10419
Description: Antibacterial activity against Escherichia coli NCTC 10419 after 18 to 20 hrs by agar dilution method

SMILES: COc1cc(Cc2cnc(/N=C3\C(=O)N(CN4CCN(c5cc6c(cc5F)c(=O)c(C(=O)O)cn6C5CC5)CC4)c4ccc(C)cc43)nc2N)cc(OC)c1OC
Ratio EC50 (Escherichia coli [1]): 2
EC50 (Escherichia coli [2]): 0.62 mg/kg
Ratio (Escherichia coli [3]): 5.5

SMILES: O=C1OCC(OCCN2CCN(c3cc4c(cc3F)c(=O)c(C(=O)O)cn4C3CC3)CC2)=C1c1ccccc1F
MIC (Escherichia coli [4]): 0.11 µg/mL (≈ 0.199 µM)
Ratio (Escherichia coli [5]): 50

SMILES: CO/N=C1\CCN(c2cc3c(cc2F)c(=O)c(C(=O)O)cn3C2CC2)CC1N.CS(=O)(=O)O (stereo unspecified)
solubility [6]: 22.5 mg/mL

SMILES: CC1=NOc2c(N3CCN(C)CC3)c(F)cc3c(=O)c(C(=O)O)cn1c23
MIC (Klebsiella pneumoniae): 8 µg/mL (≈ 22.2 µM)

SMILES: O=C(O)c1cn(C2CC2)c2cc(N3CCNCC3)c(F)cc2c1=O [CIPROFLOXACIN]
EC50 (Escherichia coli [2]): 1.25 mg/kg
MIC (Escherichia coli [7]): 1.1 nM (≈ 0.364 ng/mL)

Further lines, results first:

MIC (Klebsiella pneumoniae): 8 µg/mL (≈ 22.3 µM)
SMILES: CC1=NOc2c(N3CCC(C)CC3)c(F)cc3c(=O)c(C(=O)O)cn1c23

MIC (Klebsiella pneumoniae): 8 µg/mL (≈ 20.3 µM)
SMILES: CC1=NOc2c(N3CCc4ccccc4C3)c(F)cc3c(=O)c(C(=O)O)cn1c23
